Structures are written as SMILES.

Holding throughout (format): in vivo
Data set [1] has as its system Echinochloa oryzacola Vasing. The data set can be described thus: Test Example 1: herbicidal activity, application before weed generation in submerged conditions (symbol A). To be noted: application herbicide amount 320 g/ha. In short, it runs like this: (§1)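 Application before weed emergence: an aqueous dilution of the emulsion formulation was poured onto the surface of 4 cm-deep floodwater on the day of sowing. Effect was judged after 3 weeks (greenhouse, 25–30 °C).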

Data set [2] concerns Monochoria vaginalis. Put plainly: Test Example 1: herbicidal activity, application before weed generation in submerged conditions (symbol C). Conditions: application herbicide amount 320 g/ha. In short, it runs like this: as §1
The subject of data set [3] is Monochoria vaginalis. The data set can be described thus: Test Example 2: herbicidal activity, application during weed generation in submerged conditions (symbol C). To be noted: Table 23; application herbicide amount 320 g/ha; grade 0-5 by criteria of Test Example 1. In short, it runs like this:
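Compound was applied as a water-diluted emulsion into the standing water of flooded pots (4 cm) once co-sown weeds reached one to two leaves. Greenhouse temperature was 25° C. to 30° C., soil was alluvial, and each species was rated visually after 3 weeks.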

Data set [4] concerns Echinochloa crus-galli var. crus-galli. Put plainly: Test Example 4: herbicidal effect by soil treatment (symbol H). To be noted: application herbicide amount 320 g/ha. In short, it runs like this:
(§2)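 Seeds were sown in sterilized diluvial soil, covered with about 1.5 cm of soil, and the soil surface was sprayed with a water-diluted emulsion of the compound at a predetermined rate. Plants grew in a greenhouse at 25° C. to 30° C.; effects were scored visually 3 weeks after application.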

In data set [5] the test system is Avena fatua. The data set can be described thus: Test Example 4: herbicidal effect by soil treatment (symbol I). Conditions: application herbicide amount 320 g/ha. In short, it runs like this: as §2
A further data set concerns Abutilon theophrasti. Put plainly: Test Example 4: herbicidal effect by soil treatment (symbol M). To be noted: application herbicide amount 320 g/ha. In short, it runs like this: as §2
For another data set, the system named is soybean. The data set can be described thus: Test Example 4: effect on crop by soil treatment (symbol d). To be noted: application herbicide amount 320 g/ha. In short, it runs like this: (§3)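 Plants grew in a 25° C. to 30° C. greenhouse after spot-sowing of seeds, including beet, rapeseed, wheat and rice, into sterilized diluvial soil under roughly 1.5 cm of cover soil.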

The test system of another data set is rice. Put plainly: Test Example 4: effect on crop by soil treatment (symbol b). Conditions: application herbicide amount 320 g/ha. The essentials: as §3
The test system of another data set is beet. Put plainly: Test Example 4: effect on crop by soil treatment (symbol f). To be noted: application herbicide amount 320 g/ha. The essentials:
as §3

The subject of a further data set is Setaria viridis. The data set can be described thus: Test Example 5: herbicidal effect by foliage application, plastic box (symbol G). To be noted: 320 g/ha, 3 weeks after application. The essentials:
(§4)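 Greenhouse foliar test: seedlings at 14 days, grown 25° C. to 30° C. in sterilized diluvial soil; compound applied as an aqueous dilution of an emulsion; response read 3 weeks after spraying.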

Data set [6] concerns Echinochloa crus-galli var. crus-galli. The data set can be described thus: Test Example 5: herbicidal effect by foliage application, plastic box (symbol H). To be noted: 320 g/ha, 3 weeks after application. The essentials:
as §4

In data set [7] the test system is Avena fatua. The data set can be described thus: Test Example 5: herbicidal effect by foliage application, plastic box (symbol I). To be noted: 320 g/ha, 3 weeks after application. In short, it runs like this: as §4
A further data set concerns Apera spica-venti. The data set can be described thus: Test Example 5: herbicidal effect by foliage application, plastic box (symbol L). To be noted: 320 g/ha, 3 weeks after application. The essentials: as §4
The next data set has as its system corn. Put plainly: Test Example 5: effect on crop by foliage application, plastic box (symbol c). To be noted: 320 g/ha, 3 weeks after application. The essentials: (§5)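 Foliage-application test plants come from spot sowing in sterilized diluvial soil under a soil layer of about 1.5 cm, grown at 25° C. to 30° C. in a greenhouse.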
Another data set relates to rapeseed. Put plainly: Test Example 5: effect on crop by foliage application, plastic box (symbol g). Conditions: 320 g/ha, 3 weeks after application. The essentials:
as §5

Regarding `CON=C(C)CC1CC(OC(=O)COc2ccccc2)=C(c2c(C)cc(-c3ccc(Cl)cc3Cl)cc2C)C1=O` (stereo not drawn) [6-092], the “Herbicidal effect grade, A: Echinochloa oryzacola Vasing.” value in data set [1] was 3 (Herbicidal ratio of 40% or higher and lower than 70%). The “Herbicidal effect grade, C: Monochoria vaginalis” value (“Herbicidal effect grade, C” below) with Monochoria vaginalis [2] and in the data set on Monochoria vaginalis [3] was 0 (Herbicidal ratio of 5% or lower (almost no effect)) each time. Besides, the “Herbicidal effect grade, H: Echinochloa crus-galli var. crus-galli” value (shortened to “Herbicidal effect grade, H”) in [4] was 3 (Herbicidal ratio of 40% or higher and lower than 70%). For the same compound, the “Herbicidal effect grade, I: Avena fatua” value in the data set with Avena fatua [5] is 3 (Herbicidal ratio of 40% or higher and lower than 70%). Also, in the data set on Abutilon theophrasti, the “Herbicidal effect grade, M: Abutilon theophrasti” value (shortened to “Herbicidal effect grade, M”) is recorded as 0 (Herbicidal ratio of 5% or lower (almost no effect)). In the data set on soybean, the “Effect on crop grade, d: soybean” value was 0 (Herbicidal ratio of 5% or lower (almost no effect)). Besides, in the data set on rice, the “Effect on crop grade, b: directly sowed rice plant” value (“Effect on crop grade, b” for short) was 4 (Herbicidal ratio of 70% or higher and lower than 90%). In the data set on beet, the “Effect on crop grade, f: beet” value is recorded as 0 (Herbicidal ratio of 5% or lower (almost no effect)). In the data set on Setaria viridis, the “G: Setaria viridis, herbicidal effect (criteria of Test Example 1)” value (from here on “G: Setaria viridis, herbicidal effect”) is reported as 5 (Herbicidal ratio of 90% or more (almost completely withered)). The “H: Echinochloa crus-galli var. crus-galli, herbicidal effect (criteria of Test Example 1)” value in data set [6] was 4 (Herbicidal ratio of 70% or higher and lower than 90%). Also, the “I: Avena fatua, herbicidal effect (criteria of Test Example 1)” value (from here on “I: Avena fatua, herbicidal effect”) in the data set on Avena fatua [7] is reported as 5 (Herbicidal ratio of 90% or more (almost completely withered)). Besides, the “L: Apera spica-venti, herbicidal effect (criteria of Test Example 1)” value (from here on “L: Apera spica-venti, herbicidal effect”) with Apera spica-venti is 3 (Herbicidal ratio of 40% or higher and lower than 70%). The “c: corn, effect on crop (criteria of Test Example 1)” value (“c: corn, effect on crop” below) in the data set on corn was 2 (Herbicidal ratio of 20% or higher and lower than 40%). Moreover, the “g: rapeseed, effect on crop (criteria of Test Example 1)” value (shortened to “g: rapeseed, effect on crop”) in the data set on rapeseed was 4 (Herbicidal ratio of 70% or higher and lower than 90%).
Take `CON=C(C)CC1CC(OC(=O)N2CCOCC2)=C(c2c(C)cc(-c3ccc(F)c(Cl)c3)cc2C)C1=O` (stereo not drawn) [6-093]: the “Herbicidal effect grade, A: Echinochloa oryzacola Vasing.” value in data set [1] is listed as 5 (Herbicidal ratio of 90% or more (almost completely withered)). For the same compound, the “Herbicidal effect grade, C” value with Monochoria vaginalis [2] is 4 (Herbicidal ratio of 70% or higher and lower than 90%); with Monochoria vaginalis [3] it was 3 (Herbicidal ratio of 40% or higher and lower than 70%). In addition, the “Herbicidal effect grade, H” value in data set [4] is on record as 5 (Herbicidal ratio of 90% or more (almost completely withered)). In addition, the “Herbicidal effect grade, I: Avena fatua” value in the data set on Avena fatua [5] is reported as 0 (Herbicidal ratio of 5% or lower (almost no effect)). In the data set with Abutilon theophrasti, the “Herbicidal effect grade, M” value is 0 (Herbicidal ratio of 5% or lower (almost no effect)). The “Effect on crop grade, d: soybean” value in the data set on soybean is listed as 0 (Herbicidal ratio of 5% or lower (almost no effect)). In addition, in the data set with rice, the “Effect on crop grade, b” value was 1 (Herbicidal ratio of 5% or higher and lower than 20%). Moreover, the “Effect on crop grade, f: beet” value in the data set on beet is listed as 0 (Herbicidal ratio of 5% or lower (almost no effect)). The “G: Setaria viridis, herbicidal effect” value in the data set with Setaria viridis is 5 (Herbicidal ratio of 90% or more (almost completely withered)). For the same compound, in data set [6], the “H: Echinochloa crus-galli var. crus-galli, herbicidal effect (criteria of Test Example 1)” value is given as 5 (Herbicidal ratio of 90% or more (almost completely withered)). Moreover, the “I: Avena fatua, herbicidal effect” value in the data set on Avena fatua [7] was 5 (Herbicidal ratio of 90% or more (almost completely withered)). Also, in the data set with Apera spica-venti, the “L: Apera spica-venti, herbicidal effect” value is reported as 5 (Herbicidal ratio of 90% or more (almost completely withered)). Moreover, the “c: corn, effect on crop” value in the data set with corn is given as 5 (Herbicidal ratio of 90% or more (almost completely withered)). The “g: rapeseed, effect on crop” value in the data set on rapeseed is 4 (Herbicidal ratio of 70% or higher and lower than 90%).
`CON=C(C)CC1CC(O)=C(c2c(C)cccc2C)C1=O` (stereo not drawn) [6-112]: the “Herbicidal effect grade, A: Echinochloa oryzacola Vasing.” value in [1] was 5 (Herbicidal ratio of 90% or more (almost completely withered)). In addition, the “Herbicidal effect grade, C” value in the data set with Monochoria vaginalis [2] and with Monochoria vaginalis [3] was 0 (Herbicidal ratio of 5% or lower (almost no effect)) throughout. Further, the “Herbicidal effect grade, H” value in [4] was 5 (Herbicidal ratio of 90% or more (almost completely withered)). The “Herbicidal effect grade, I: Avena fatua” value with Avena fatua [5] is 1 (Herbicidal ratio of 5% or higher and lower than 20%). The “Herbicidal effect grade, M” value in the data set on Abutilon theophrasti is 1 (Herbicidal ratio of 5% or higher and lower than 20%). Moreover, the “Effect on crop grade, d: soybean” value with soybean was 0 (Herbicidal ratio of 5% or lower (almost no effect)). In the data set with rice, the “Effect on crop grade, b” value is on record as 5 (Herbicidal ratio of 90% or more (almost completely withered)). Also, in the data set with beet, the “Effect on crop grade, f: beet” value is on record as 0 (Herbicidal ratio of 5% or lower (almost no effect)). Moreover, in the data set with Setaria viridis, the “G: Setaria viridis, herbicidal effect” value is reported as 5 (Herbicidal ratio of 90% or more (almost completely withered)). The “H: Echinochloa crus-galli var. crus-galli, herbicidal effect (criteria of Test Example 1)” value in data set [6] was 5 (Herbicidal ratio of 90% or more (almost completely withered)). The “I: Avena fatua, herbicidal effect” value in the data set with Avena fatua [7] is on record as 5 (Herbicidal ratio of 90% or more (almost completely withered)). Also, the “L: Apera spica-venti, herbicidal effect” value in the data set with Apera spica-venti is given as 5 (Herbicidal ratio of 90% or more (almost completely withered)). The “c: corn, effect on crop” value in the data set with corn was 5 (Herbicidal ratio of 90% or more (almost completely withered)). In the data set with rapeseed, the “g: rapeseed, effect on crop” value is 4 (Herbicidal ratio of 70% or higher and lower than 90%).
In the case of `CON=C(C)CC1CC(O)=C(c2c(C)cc(-c3cc(Cl)cc(Cl)c3)cc2C)C1=O` (stereo not drawn) [6-087], the “Herbicidal effect grade, A: Echinochloa oryzacola Vasing.” value in [1] was 5 (Herbicidal ratio of 90% or more (almost completely withered)). The “Herbicidal effect grade, C” value in the data set on Monochoria vaginalis [2] and in the data set on Monochoria vaginalis [3] was 0 (Herbicidal ratio of 5% or lower (almost no effect)) each time. For the same compound, the “Herbicidal effect grade, H” value in data set [4] was 5 (Herbicidal ratio of 90% or more (almost completely withered)). Further, the “Herbicidal effect grade, I: Avena fatua” value in the data set with Avena fatua [5] is 0 (Herbicidal ratio of 5% or lower (almost no effect)). The “Herbicidal effect grade, M” value in the data set on Abutilon theophrasti is on record as 0 (Herbicidal ratio of 5% or lower (almost no effect)). The “Effect on crop grade, d: soybean” value in the data set on soybean is 3 (Herbicidal ratio of 40% or higher and lower than 70%). The “Effect on crop grade, b” value in the data set on rice was 0 (Herbicidal ratio of 5% or lower (almost no effect)). Also, the “Effect on crop grade, f: beet” value in the data set on beet is reported as 0 (Herbicidal ratio of 5% or lower (almost no effect)). Besides, the “G: Setaria viridis, herbicidal effect” value in the data set with Setaria viridis is 5 (Herbicidal ratio of 90% or more (almost completely withered)). Besides, the “H: Echinochloa crus-galli var. crus-galli, herbicidal effect (criteria of Test Example 1)” value in data set [6] is 5 (Herbicidal ratio of 90% or more (almost completely withered)). Moreover, the “I: Avena fatua, herbicidal effect” value in the data set with Avena fatua [7] is 0 (Herbicidal ratio of 5% or lower (almost no effect)). In addition, in the data set on Apera spica-venti, the “L: Apera spica-venti, herbicidal effect” value is 3 (Herbicidal ratio of 40% or higher and lower than 70%). The “c: corn, effect on crop” value in the data set with corn is listed as 0 (Herbicidal ratio of 5% or lower (almost no effect)). In the data set on rapeseed, the “g: rapeseed, effect on crop” value is 4 (Herbicidal ratio of 70% or higher and lower than 90%).

The record behind these values is US11000033B2, “Ketone or oxime compound, and herbicide” (NISSAN CHEMICAL CORPORATION, priority 2014, dated 2021).
